# Target: T1, hNav1.8 (Homo sapiens, UniProt Q9Y5Y9)
# T1 construct: host or cells: HEK cells, stably transfected
# Experiment: hNav1.8 whole-cell patch-clamp electrophysiology in HEK cells (conventional or PatchXpress 7000)
# Format: cell-based
# Settings: estimated IC50 calculated from single point % inhibition; HEK cells stably transfected with hNav1.8; 20 msec step to 0 mV after 8 second prepulse to V1/2; average of replicates; read-out: NaV1.8 EIC50
# From the text: The ability of the imidazole derivatives of the formula (I) to inhibit the NaV1.8 channel may be measured using the assay described below.
# HEK cells stably transfected with hNav1.8, purchased from Millipore (Millipore Corp., Billerica, Mass. 01821), were maintained according to manufacturer's instructions. For electrophysiological studies, cells were removed from the culture flask by brief trypsinization and re-plated at low density onto glass cover slips. Cells were typically used for electrophysiological experiments within 24 to 72 h after plating.
# Cover slips containing HEK cells expressing hNav1.8 were placed in a bath on the stage of an inverted microscope and perfused (approximately 1 mL/min) with extracellular solution of the following composition: 138 mM NaCl, 2 mM CaCl2, 5.4 mM KCl, 1 mM MgCl2, 10 mM glucose, and 10 mM HEPES, pH 7.4, with NaOH. […] The osmolarity of the extracellular and intracellular solutions was 300 mOsm/kg and 295 mOsm/kg, respectively. All recordings were made at room temperature (22-24° C.) using AXOPATCH 200B amplifiers and PCLAMP software (Axon Instruments, Burlingame, Calif.).
# hNav1.8 currents in HEK cells were measured using the whole-cell configuration of the patch-clamp technique (Hamill et al., 1981). Uncompensated series resistance was typically 2 to 5 mega ohms and >85% series resistance compensation was routinely achieved. […] Current records were acquired at 20 to 50 KHz and filtered at 5 to 10 KHz.
# HEK cells stably transfected with hNav1.8 were viewed under Hoffman contrast optics and placed in front of an array of flow pipes emitting either control or compound-containing extracellular solutions. All compounds were dissolved in dimethyl sulfoxide to make 10 mM stock solutions, which were then diluted into extracellular solution to attain the final concentrations desired.
# The voltage-dependence of inactivation was determined by applying a series of depolarizing prepulses (8 sec long in 10 mV increments) from a negative holding potential. The voltage was then immediately stepped to 0 mV to assess the magnitude of the sodium current. Currents elicited at 0 mV were plotted as a function of prepulse potential to allow estimation of the voltage at which 50% of the channels were inactivated (midpoint of inactivation or V1/2). Compounds were tested for their ability to inhibit hNav1.8 sodium channels by activating the channel with a 20 msec voltage step to 0 mV following an 8 second conditioning prepulse to the empirically determined V1/2. Compound effect (% inhibition) was determined by difference in current amplitude before and after application of test compounds. For ease of comparison, “estimated IC-50” values were calculated from single point electrophysiology data by the following equation, (tested concentration, uM)×(100−% inhibition/% inhibition). Inhibition values <20% and >80% were excluded from the calculation.
# In some cases electrophysiological assays were conducted with PatchXpress 7000 hardware and associated software (Molecular Devices Corp). All assay buffers and solutions were identical to those used in conventional whole-cell voltage clamp experiments described above. hNav1.8 cells were grown as above to 50%-80% confluency and harvested by trypsinization. Trypsinized cells were washed and resuspended in extracellular buffer at a concentration of 1×10^6 cells/mL. The onboard liquid handling facility of the PatchXpress was used for dispensing cells and application of test compounds. Determination of the voltage midpoint of inactivation was as described for conventional whole-cell recordings. Cells were then voltage-clamped to the empirically determined V1/2 and current was activated by a 20 msec voltage step to 0 mV.
# T1 sequence (Q9Y5Y9 whole entry): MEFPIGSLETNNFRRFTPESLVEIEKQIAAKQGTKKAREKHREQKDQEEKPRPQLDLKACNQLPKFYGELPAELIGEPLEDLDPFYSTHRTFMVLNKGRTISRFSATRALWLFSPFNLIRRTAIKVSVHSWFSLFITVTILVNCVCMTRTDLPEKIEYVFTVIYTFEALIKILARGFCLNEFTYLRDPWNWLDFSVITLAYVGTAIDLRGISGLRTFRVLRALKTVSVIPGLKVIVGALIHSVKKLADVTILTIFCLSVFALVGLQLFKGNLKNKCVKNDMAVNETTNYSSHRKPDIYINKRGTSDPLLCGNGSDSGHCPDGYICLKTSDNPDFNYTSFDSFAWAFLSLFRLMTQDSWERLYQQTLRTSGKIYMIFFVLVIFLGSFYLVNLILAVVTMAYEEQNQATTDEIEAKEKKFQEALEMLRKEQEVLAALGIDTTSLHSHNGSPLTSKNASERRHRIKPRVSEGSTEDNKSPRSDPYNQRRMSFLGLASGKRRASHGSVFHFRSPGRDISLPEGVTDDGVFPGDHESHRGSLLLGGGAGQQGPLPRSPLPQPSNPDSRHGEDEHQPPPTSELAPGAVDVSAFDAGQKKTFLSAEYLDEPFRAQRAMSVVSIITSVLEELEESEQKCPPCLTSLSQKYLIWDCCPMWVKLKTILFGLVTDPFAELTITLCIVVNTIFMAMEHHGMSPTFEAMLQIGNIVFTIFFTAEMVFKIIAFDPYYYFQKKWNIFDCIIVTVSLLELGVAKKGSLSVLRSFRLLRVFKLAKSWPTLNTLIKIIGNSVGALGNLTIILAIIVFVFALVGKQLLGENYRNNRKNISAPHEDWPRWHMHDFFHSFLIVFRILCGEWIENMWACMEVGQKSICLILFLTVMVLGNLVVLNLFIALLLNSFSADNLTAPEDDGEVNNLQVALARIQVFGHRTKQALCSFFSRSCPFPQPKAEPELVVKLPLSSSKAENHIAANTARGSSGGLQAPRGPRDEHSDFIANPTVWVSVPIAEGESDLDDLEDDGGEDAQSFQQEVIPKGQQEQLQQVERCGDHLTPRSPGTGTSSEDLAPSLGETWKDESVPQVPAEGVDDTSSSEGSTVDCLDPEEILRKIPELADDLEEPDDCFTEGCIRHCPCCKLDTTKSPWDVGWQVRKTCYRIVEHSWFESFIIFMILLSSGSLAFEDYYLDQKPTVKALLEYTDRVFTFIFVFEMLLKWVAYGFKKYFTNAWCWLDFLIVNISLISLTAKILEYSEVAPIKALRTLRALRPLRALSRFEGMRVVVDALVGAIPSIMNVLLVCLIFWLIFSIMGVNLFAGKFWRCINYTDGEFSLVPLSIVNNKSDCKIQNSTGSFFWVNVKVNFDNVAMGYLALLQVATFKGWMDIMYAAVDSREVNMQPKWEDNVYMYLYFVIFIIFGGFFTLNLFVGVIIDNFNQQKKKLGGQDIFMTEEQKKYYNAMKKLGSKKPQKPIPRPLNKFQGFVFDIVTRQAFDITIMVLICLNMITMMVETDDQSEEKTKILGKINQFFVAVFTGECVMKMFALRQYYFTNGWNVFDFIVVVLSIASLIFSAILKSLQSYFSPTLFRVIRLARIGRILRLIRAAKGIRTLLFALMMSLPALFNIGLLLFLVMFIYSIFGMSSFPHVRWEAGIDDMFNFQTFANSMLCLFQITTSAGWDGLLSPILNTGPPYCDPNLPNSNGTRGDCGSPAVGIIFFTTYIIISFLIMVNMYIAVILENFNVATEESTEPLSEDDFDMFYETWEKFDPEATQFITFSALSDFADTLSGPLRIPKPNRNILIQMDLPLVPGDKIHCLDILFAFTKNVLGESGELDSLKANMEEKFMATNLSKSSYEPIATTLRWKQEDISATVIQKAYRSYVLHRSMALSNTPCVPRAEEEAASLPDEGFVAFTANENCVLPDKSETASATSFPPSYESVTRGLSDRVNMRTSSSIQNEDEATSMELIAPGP
row,IC50,Compound
1,0.0078 µM,"C[C@H](c1nc(-c2ccc(C(F)(F)F)cc2)c[nH]1)C1(N)COC1 (single isomer, unassigned) [Example 13]"
2,0.0033 µM,"C[C@H](c1nc(-c2ccc(OC(F)(F)F)cc2)c[nH]1)C1(N)COC1 (single isomer, unassigned) [Example 10]"
3,0.051 µM,"C[C@@H](c1nc(-c2ccc(C(F)(F)F)cc2)c[nH]1)C1(N)COC1 (single isomer, unassigned) [Example 14]"
4,0.032 µM,"CC[C@H](c1nc(-c2ccc(OC(F)(F)F)cc2)c[nH]1)C1(N)COC1 (single isomer, unassigned) [Example 16]"
5,0.011 µM,"CCC(c1nc(-c2ccc(OC(F)(F)F)cc2)c[nH]1)C1(N)COC1 (racemic) [Example 15, 3-(1-{4-[4-(Trifluoromethoxy)phenyl]-1H-imidazol-2-yl}propyl)oxetan-3-amine]"
6,0.009 µM,"C[C@@H](c1nc(-c2ccc(OC(F)(F)F)cc2)c[nH]1)C1(N)COC1 (single isomer, unassigned) [Example 11]"
7,0.92 µM,"NC1(Cc2nc(-c3ccc(S(F)(F)(F)(F)F)cc3)c[nH]2)COC1 [Example 6, 3-({4-[4-(Pentafluoro-λ^6-sulfanyl)phenyl]-1H-imidazol-2-yl}methyl)oxetan-3-amine]"
8,0.36 µM,"NC1(Cc2nc(-c3ccc(C(F)(F)F)cc3)c[nH]2)COC1 [Example 4, 3-({4-[4-(Trifluoromethyl)phenyl]-1H-imidazol-2-yl}methyl)oxetan-3-amine]"
9,0.26 µM,"NC1(Cc2nc(-c3ccc(OC(F)(F)F)cc3)c[nH]2)CCOC1 (stereo not shown) [Example 3, 3-({4-[4-(Trifluoromethoxy)phenyl]-1H-imidazol-2-yl}methyl)tetrahydrofuran-3-amine]"
10,0.4 µM,"NC1(Cc2nc(-c3ccc(OC(F)(F)F)cc3)c[nH]2)CCOCC1 [Example 7, 4-({4-[4-(Trifluoromethoxy)phenyl]-1H-imidazol-2-yl}methyl)tetrahydro-2H-pyran-4-amine]"
11,0.36 µM,"Cc1cc(-c2c[nH]c(CC3(N)COC3)n2)ccc1Cl [Example 2, 3-{[4-(4-Chloro-3-methylphenyl)-1H-imidazol-2-yl]methyl}oxetan-3-amine]"
12,0.19 µM,"NC1(Cc2nc(-c3ccc(OC(F)(F)F)cc3)c[nH]2)CCCOC1 (stereo not shown) [Example 1, 3-({4-[4-(Trifluoromethoxy)phenyl]-1H-imidazol-2-yl}methyl)tetrahydro-2H-pyran-3-amine]"
13,0.075 µM,"CC[C@@H](c1nc(-c2ccc(OC(F)(F)F)cc2)c[nH]1)C1(N)COC1 (single isomer, unassigned) [Example 17]"
14,0.0097 µM,"CC(c1nc(-c2ccc(C(F)(F)F)cc2)c[nH]1)C1(N)COC1 (racemic) [Example 12, 3-(1-{4-[4-(Trifluoromethyl)phenyl]-1H-imidazol-2-yl}ethyl)oxetan-3-amine]"
15,0.48 µM,"NC1(Cc2nc(-c3ccc(OC(F)F)cc3)c[nH]2)COC1 [Example 5, 3-({4-[4-(Difluoromethoxy)phenyl]-1H-imidazol-2-yl}methyl)oxetan-3-amine]"
16,0.026 µM,"CC(c1nc(-c2ccc(OC(F)(F)F)cc2)c[nH]1)C1(N)COC1 (racemic) [Example 9, 3-(1-{4-[4-(Trifluoromethoxy)phenyl]-1H-imidazol-2-yl}ethyl)oxetan-3-amine]"
